Data: US20240407364A1, “METHODS OF WEED CONTROL” (Weedout Ltd., priority 2021, published 2024)
“Also recorded” adds a separate entry of the source.

What was measured:
[1] = test system: Amaranthus tuberculatus male plants; assay: Exp 401: Amaranthus tuberculatus pollen production; assay type: in vivo; details: Select Super 7 ml/L
Method: (§1) The goal of this experiment was to examine if ACCase inhibitors can function as a sterilant on other broadleaf families.
(§2) The experiment was conducted during April-June 2022 at the test farm of the Faculty of Agriculture in Rehovot, Israel. The different broad leaf species (Table 5) were sown in germination trays. 3-4 weeks after the seedling had emerged, they were transplanted in 4 L pots with potting soil mixture. Amaranthus tuberculatus female plants were separated from male plants and grown outside in a location isolated from air borne pollen. Upon maturation, 10 plants from each species, except for A. tuberculatus females, were selected and divided into 2 groups (control and treatment). In A. tuberculatus, 8 female plants were used for the testing.
(§3) All the treated plants were sprayed with clethodim (Select Super™, Arysta Lifescience) in 7 ml/L rate while the control group was treated with tap water. […]
(§4) Four, 7 14 and 21 days after treatment, the plants were visually examined carefully to identify possible sterilant effects such as reduction in pollen production, growth delay, damaged flowers, loss of flowers, loss of pods and phytotoxicity. These effects were measured or evaluated and recorded. The average values of each parameter were calculated both for the treated and for the control groups and a statistical analysis was conducted.

A. palmeri female plants [2] = assay: Exp 313: dose response of Clethodim (Select Super) on seed set; assay type: in vivo, Amaranthus palmeri; details: for reduction in number of seeds produced in comparison to the control, on average: all time points averaged
Method: The goal of this experiment was to examine dose response of Clethodim (Select Super™) treatment and validate the results of Example 3.
The experiment was conducted during September 2021 at the tests farm of the Faculty of Agriculture in Rehovot, Israel. A. palmeri plants were sown in germinating trays. 3 weeks after the seedlings had emerged, they were transplanted to 4 L pots with a potting soil mixture. The female plants were separated from the male plants and were grown outside in a location isolated from air-borne pollen. Upon maturation, 9 female plants were selected and divided into 3 groups of 3 plants.
The experiment tested 2 rates of Select Super™ (Clethodim 120 gr/L-Arysta): (I) Low rate (3.5 ml/1), (II) High rate (7 ml/1). Another group of plants was treated with tap water (Control), [3.5 ml/L treatment=0.42 gr/L in active ingredient, 7 ml/L treatment=0.84 gr/L].
Treatment procedure was conducted as follows: spraying of the entire plants with the different treatments using a hand-held 1.5 L sprayer, with enough distance between the groups to prevent contamination.
To test the effect of Clethodim on seed set, artificial pollinations were conducted in several time intervals following clethodim treatment. On each time interval, 2 inflorescences on each plant were artificially pollinated by placing a paper tube with 10 mg of fresh non-irradiated pollen on the inflorescence and leaving it for 20 minutes before removing. On each time interval a total of 6 inflorescences from 3 female plants were pollinated. The intervals were as follows: 1.5-hour, 1 day, 2 days, 4 days, 7 days, 10 days and 22 days after treatment.

A. palmeri female plants [3] = assay: Exp 289: seed set of female plants pollinated 1.5 hours to 10 days after Clethodim; assay type: in vivo, Amaranthus palmeri; details: Select Super 3.5 ml/l
Method: The goal of this experiment was to examine the effects of Clethodim (Select Super™) on seed set in A. palmeri female plants. The results of Example 1 provided an initial indication on a reduction in seed set one week after an application of Clethodim. The following experiment tested the effect of Clethodim on seed set when pollination occurs from 1.5 hours to 10 days after treatment with Clethodim.
The experiment was conducted during June-July 2021 at the tests farm of the Tests farm of the Faculty of Agriculture, Rehovot, Israel, Israel. A. palmeri plants were sown in germinating trays. Three weeks after the seedlings had emerged, they were transplanted to 4 L pots with a potting soil mixture. The female plants were separated from the male plants and were grown outside in a location isolated from air-borne pollen. Upon maturation, 6 female plants were selected and divided into 2 groups of 3 plants.
Spraying of the entire plants with either tap water or Select Super™ (3.5 ml/1) using a hand-held 1.5 L sprayer, with enough distance between the groups to prevent contamination.
To test the effect of Clethodim on seed set, the inflorescence of the plants were artificially pollinated. On each time interval, a paper tube with 10 mg of fresh non-irradiated pollen was carefully placed on an inflorescence, leaving it for 20 minutes before removing. […]

A. palmeri females [4] = assay: Exp 254: seed set of females pollinated one week after treatment; assay type: in vivo, Amaranthus palmeri
Method: (§5) The experiment was conducted during April-May 2021 in a net house in Rehovot, Israel. A. palmeri plants were sown in germinating trays. Three weeks after the seedlings had emerged, the male plants were transplanted in the net house. A. palmeri plants were divided into 10 groups of 10 plants, 100 male plants in total. In addition, 30 females, 3 females per treatment, were transplanted in 4 L pots with a potting soil mixture and were grown in a different net house, isolated from male pollen.
(§6) The treatments were applied using a hand-held sprayer, the females were sprayed first and then the males. ˜650 ml solution was used per treatment for both males and females, except the Paraffin:Silicon oil treatment in which 500 ml was used. The solutions were sprayed on top of the plants except the Diuron that was sprayed directly to the soil and stem, except for one female that was sprayed on top. To activate the Diuron, each plant was watered with 1 L of water.
The experiment aimed to test not just the male sterility properties of the agents but also to examine the effect on the seed set. To do so, one week after treatment, the main inflorescence of each female (except the blank) was pollinated with fresh pollen mixed with talc in 2:1 ratio using a puffer. 70 mg of pollen was applied on each female. Two weeks after pollination the inflorescences were harvested, dried, thrashed and the seeds were counted.

A. palmeri male plants [5] = assay: Exp 321: male sterility agents screening #2, pollen production; assay type: in vivo, Amaranthus palmeri; details: 7 ml/L (high rate); collection up to 12 DAA
Method: The goal of this experiments was to repeat results with Select Super™ (Arysta Lifescience) and test an additional formulation of clethodim to act as a sterilant on A. palmeri male plants.
The experiment was conducted during September-October 2022 in a net house in Rehovot, Israel. A. palmeri plants were sown in germinating trays, 3 weeks after the seedlings had emerged, the male plants were transplanted in the net house. A. palmeri plants were divided into 4 groups of 10 plants each, 40 male plants in total.
Once the male plants had all started to flower, the pollen had been collected daily with a vacuum cleaner in the same manner as described in Example 1. Pollen was collected in specific days following the applications up to 12 DAA.
The experiment tested 2 male sterilant agents: (1) Clethodim (Select Super™, Arysta Lifescience) low rate: 3.5 ml/L and high rate: 7 ml/L, (2) Clethodim (Arrow Super™, Adama) 7 ml/L. Another group of plants were not treated at all and served as a control.
Treatment procedure was conducted as follows: spraying of the entire plants using a hand-held 1.5 L sprayer for a full cover of all plant parts. Each group of plants was sprayed with the tested treatment while keeping enough distance between the groups to prevent contamination.

A. palmeri male plants [6] = assay: Exp 254: pollen production of male plants after spraying male sterilant agents; assay type: in vivo, Amaranthus palmeri
Method: as §5
Once the male plants had all started to flower, the pollen had been collected daily with a vacuum cleaner. The vacuum cleaner had been mounted with a replaceable filter located ahead of the dust container, thus catching the pollen before it enters the container and improving its collection. A new filter was used for each group, and the filters were kept in a 50 ml tube before the pollen was extracted and weighed in the lab.
(§7) The experiment tested 8 male sterilant agents (Table 2): (1) Triton X-100 (Adama), at label rate, ˜8 times the rate used in experiment I; (2) Tribenuron-Methyl (TBM) (Gadot), 1/100 the rate used in experiment I; (3) 10% Paraffin oil (Life—Superpharm) diluted in Silicon oil 2 cST; (4) E.O.S. (Adama), an insecticide with a physical mode of action, based on petroleum oil; (5) Maleic Hydrazide (Sigma), an Auxin (plant hormone) disruptor known to affect pollen production; (6) Pyrithiobac (IHARA chemical industry co. ltd), an herbicide of the AHAS inhibitors group, regularly used in cotton cultivation to control broadleaf weeds; (7) Diuron (Adama), a herbicide of the Photosystem II inhibitors, regularly used in cotton cultivation; (8) Clethodim (Select Super™ a selective herbicide used to control Gramineae. Another group of plants were treated with water only as control, and another was not treated at all (Blank).
as §6

Abutilon theophrasti = assay: Exp 401: clethodim on Abutilon theophrasti; assay type: in vivo; details: Select Super 7 ml/L
Method: as §1, §2
(§8) All the treated plants were sprayed with clethodim (Select Super™, Arysta Lifescience) in 7 ml/L rate while the control group was treated with tap water.
(§9) Treatment procedure was conducted as follows: spraying of the entire plants with the different treatments using electric back sprayer for a full cover, with enough distance between the groups to prevent contamination.
as §4

A. palmeri male plants [7] = assay: Exp 275: pollen weight of male plants after male sterilant agents; assay type: in vivo, Amaranthus palmeri
Method: The experiment was conducted during May-June 2021 in a net house in Rehovot, Israel. A. palmeri plants were sown in the net house soil and were grown for over a month before the experiment started. A. palmeri plants were divided into 6 groups of 10 plants, 60 male plants in total.
The plants were mature and produced pollen when the experiment started. The pollen had been collected daily with a vacuum cleaner. The vacuum cleaner had been mounted with a replaceable filter located ahead of the dust container, thus catching the pollen before it enters the container and improving its collection. Pollen was collected for 5 days before the treatment and was continued for 2 weeks afterwards.
The experiment tested 5 male sterilant agents: (I) Silicon oil 2 cST; (II) 2% Paraffin oil (Life—Superpharm) in Silicon oil 2 c/st; (III) 10% Paraffin oil (Life—Superpharm) in Silicon oil 2 cST; (IV) Clethodim (Select Super™), same as in Example 1; (V) Pyrithiobac, at 1/10 the concentration used in experiment II. Another group of plants was not treated at all (Blank).
The treatments were applied using a hand-held sprayer. The solutions were sprayed on top of the plants.

[8] = test system: Amaranthus tuberculatus female plants; assay: Exp 401: clethodim on broadleaf panel, Amaranthus tuberculatus seed set; assay type: in vivo; details: Select Super 7 ml/L
Method: as §1, §2, §8, §9
To test the effect of treatment on the seed set, artificial pollinations were conducted 7 days following the clethodim treatment. One spike from each plant was artificially pollinated by placing a paper tube with 10 mg of fresh non-irradiated pollen on the spike and leaving it for 20 minutes before removing. A total of 4 spikes from 4 female plants were pollinated.
as §4

Solanum nigrum = assay: Exp 401: clethodim on Solanum nigrum; assay type: in vivo; details: Select Super 7 ml/L; 15 DAA; p-value 0.0048
Method: as §1, §2, §3, §4

A. palmeri females [9] = assay: Exp 254: phytotoxicity of the agents on females; assay type: in vivo, Amaranthus palmeri; details: 3 females per treatment; concentrations of Table 2; Diuron 5 ml/L, Pyrithiobac 5.4 μL/L
Method: as §5
as §7, with “Another group of plants were treated with water only as control, and another was not treated at all (Blank).” left out

[10] = average of 3 inflorescences, pollinated one week after treatment
[11] = Clethodim 3.5 ml/L, 10% Paraffin in 2 cST
[12] = Clethodim treatment group, FIG. 2

## CCSC(C)CC1CC(=O)C(/C(CC)=N/OC/C=C/Cl)=C(O)C1 (centres unmarked) [Clethodim]
[1]
  duration of the effect on pollen: at least 21 days
  onset of the effect on pollen: 4 days after treatment
A. palmeri female plants [2]; both rates
  visible effect on the plants: no visible effect on the plants
A. palmeri female plants [2]; high rate 7 ml/l (0.84 gr/L active ingredient)
  reduction in number of seeds produced in comparison to the control, on average: 92%
A. palmeri female plants [2]; low rate 3.5 ml/l (0.42 gr/L active ingredient)
  reduction in number of seeds produced in comparison to the control, on average: 67%
A. palmeri female plants [3]
  duration of decreased total seed number after application: at least 10 days
A. palmeri females [4]; [10]
  Average Aborted Seeds: 80.7 number of seeds
  Average Abortion Rate (fraction of aborted seeds from the total seed number): 0.17
  Average Normal Seeds: 349 number of seeds
  Average Seeds/ mg inflo. (total seed number divided by inflorescence weight): 0.78
  Average Total Seeds: 429.7 number of seeds
A. palmeri females [4]; average of 3 inflorescences, pollinated one week after treatment, harvested two weeks later
  Average Inflo. Weight: 667.3 mg
A. palmeri females [4]; compared to H2O treatment
  effect on abortion rate compared to the water: no effect
  number of seeds per inflorescence mg as % of the water treatment value: ~70%
A. palmeri male plants [5]
  reduction in pollen production between day 4 and the end of the experiment: 78%
A. palmeri male plants [6]; Clethodim 3.5 ml/L
  pollen weight after treatment relative to the lowest amount collected before treatment: 1/10
A. palmeri male plants [6]; [11]
  duration of the pollen weight reduction / time to get back to pre-treatment weight: 14 days
  onset of the reduction in pollen weight: 5 days after treatment
A. palmeri male plants [6]; [12]
  onset of pollen production (recovery): 13 DAT
  period of major reduction in pollen weight: 5-8 DAT
A. palmeri male plants [6]; male plants after spraying
  visible effect / injury to the treated plants: no apparent injury to the plants; also recorded: no visible effect on the plants
Abutilon theophrasti
  time from application to start of Blossom-Drop: 7 days
Abutilon theophrasti; 15 DAA, p-value *0.0058
  reduction in average stem length (main stem): 19%
Abutilon theophrasti; 15 days after application, p-value *0.0001
  reduction in average pods number in comparison to the control: 75%
A. palmeri male plants [7]; 10% Paraffin oil in Silicon oil 2 cST, Clethodim (Select Super) as in Example 1
  duration of the reduction in pollen weight: 8 days
A. palmeri male plants [7]; in vivo
  apparent damage to the plants: did not cause any apparent damage to the plants
  onset of the reduction in pollen weight after application: 5 days
A. palmeri male plants [7]; maximum reduction, FIG. 4
  reduction in pollen weight compared to the blank: up to 80%
[8]
  visible effect on the plants: no visible effect on the plants other than on the flowering organs
[8]; pollination 7 days after treatment
  reduction of average seed weight per spike in comparison to the control spikes: 93%
[8]; pollination 7 days after treatment, 4 spikes from 4 plants
  Average total seed weight per spike: 13.25 mg
Solanum nigrum
  reduction in average total fruit number: 35%

## COc1cc(OC)nc(Sc2cccc(Cl)c2C(=O)O)n1 [Pyrithiobac]
A. palmeri females [9]
  phytotoxicity on females: chlorosis and growth stunt

## CCSC(C)CC1CC(=O)C(/C(CC)=N/OC/C=C/Cl)=C(O)C1 (centres unmarked) [Clethodim (Select Super™]
A. palmeri female plants [3]; vs tap water
  abortion rate (aborted seeds/total seeds): significantly higher compared to the water control

## CN(C)C(=O)Nc1ccc(Cl)c(Cl)c1 [Diuron]
A. palmeri females [9]
  phytotoxicity on females: killed all three females
